Experimental data from patent publication US10683294B2, “5-5 fused rings as C5a inhibitors” (CHEMOCENTRYX, INC., priority 2017, dated 2020).
pIC50: −log10 of the molar value.

Biological target: C5aR (Homo sapiens (Human), UniProt P21730)
Assay: Chemotaxis assay (inhibition of C5aR mediated migration towards C5a)
Assay type: cell-based
Settings: inhibition in the chemotaxis assay (Example 14 B.3); U937 or neutrophil cells, 0.03 nM C5a
Description: U937 cells are a monocytic cell line which express C5aR, and are available from ATCC (VA). These cells were cultured as a suspension in RPMI-1640 medium supplemented with 2 mM L-glutamine, 1.5 g/L sodium bicarbonate, 4.5 g/L glucose, 10 mM HEPES, 1 mM sodium pyruvate, and 10% FBS. Cells were grown under 5% CO2/95% air, 100% humidity at 37° C. and subcultured twice weekly at 1:6 (cells were cultured at a density range of 1×10^5 to 2×10^6 cells/mL) and harvested at 1×10^6 cells/mL. Prior to assay, cells are treated overnight with 0.5 mM of cyclic AMP (Sigma, Ohio) and washed once prior to use. cAMP treated U937 cells can be used in C5aR ligand binding and functional assays.
Optionally, human or murine neutrophils can be used to assay for compound activity. Neutrophils may be isolated from fresh human blood using density separation and centrifigation. Briefly, whole blood is incubated with equal parts 3% dextran and allowed to separate for 45 minutes. After separation, the top layer is layered on top of 15 mls of Ficoll (15 mls of Ficoll for every 30 mls of blood suspension) and centrifuged for 30 minutes at 400×g with no brake. The pellet at the bottom of the tube is then isolated and resuspended into PharmLyse RBC Lysis Buffer (BD Biosciences, San Jose, Calif.) after which the sample is again centrifuged for 10 minutes at 400×g with brake. The remaining cell pellet is resuspended as appropriate and consists of isolated neutrophils.
Optionally, compounds may be further assayed for their ability to inhibit chemotaxis in cells. Chemotaxis assays are performed using 5 μm pore polycarbonate, polyvinylpyrrolidone-coated filters in 96-well chemotaxis chambers (Neuroprobe; Gaithersburg, Md.) using chemotaxis buffer (Hank's balanced salt solution (HBSS) and 1% FBS). C5aR ligands (i.e., C5a, R&D Systems; Minneapolis, Minn.) are use to evaluate compound mediated inhibition of C5aR mediated migration. Other chemokines (i.e., SDF-1α; R&D Systems; Minneapolis, Minn.) are used as specificity controls. The lower chamber is loaded with 29 μl of chemokine (i.e., 0.03 nM C5a) and varying amounts of compound; the top chamber contains 100,000 U937 or neutrophil cells in 20 μl. The chambers are incubated 1.5 hours at 37° C., and the number of cells in the lower chamber quantified either by direct cell counts in five high powered fields per well or by the CyQuant assay (Molecular Probes), a fluorescent dye method that measures nucleic acid content and microscopic observation.

C5aR, sequence (P21730 whole entry): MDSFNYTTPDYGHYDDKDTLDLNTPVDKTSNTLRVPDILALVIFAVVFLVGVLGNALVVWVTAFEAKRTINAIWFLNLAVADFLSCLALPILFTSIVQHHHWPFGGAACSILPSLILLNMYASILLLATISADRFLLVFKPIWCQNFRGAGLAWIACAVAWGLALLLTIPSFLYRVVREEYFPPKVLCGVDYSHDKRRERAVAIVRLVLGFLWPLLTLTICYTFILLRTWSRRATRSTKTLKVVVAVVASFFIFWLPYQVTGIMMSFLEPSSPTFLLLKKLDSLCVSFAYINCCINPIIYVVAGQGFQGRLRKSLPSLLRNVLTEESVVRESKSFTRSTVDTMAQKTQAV

Compound	pIC50
Cc1cccc(C)c1-n1nc2c(c1-c1ccc3[nH]ccc3c1)CN(C(=O)c1ccccc1)C2 [Compound 1.066]	≤ 6.30
Cc1cccc(C)c1-n1nc2c(c1-c1ccc3[nH]ccc3c1)CN(S(=O)(=O)c1ccc(C(C)(C)C)cc1)C2 [Compound 1.063]	≤ 6.30
Cc1cccc(C)c1-n1nc2c(c1-c1ccc3[nH]ccc3c1)CN(C(=O)OC(C)(C)C)C2 [Compound 1.067]	6.30 to 7.30
CCc1cccc(CC)c1-n1nc2c(c1-c1ccc(C(=O)O)c3[nH]ccc13)CN(Cc1ccc(C(F)(F)F)cc1C(F)(F)F)C2(C)C [Compound 1.005]	≤ 6.30
CCc1cccc(CC)c1-n1nc2c(c1-c1ccc(F)c3[nH]ccc13)CN(Cc1ccccn1)C2(C)C [Compound 1.019]	7.30 to 8.30
CCc1cccc(CC)c1-n1nc2c(c1-c1cc(F)c(OC)c3[nH]ccc13)CN(Cc1ccc(C(F)(F)F)cc1C(F)(F)F)C2(C)C [Compound 1.002]	> 8.30
CCc1cccc(CC)c1-n1nc2c(c1-c1cc(F)c3[nH]ccc3c1)CN(Cc1ccc(C(F)(F)F)cc1C(F)(F)F)C2(C)C [Compound 1.027]	7.30 to 8.30
CCc1cccc(CC)c1-n1nc2c(c1-c1ccc(CO)c3[nH]ccc13)CN(Cc1ccc(C(F)(F)F)cc1C(F)(F)F)C2(C)C [Compound 1.004]	> 8.30
Cc1cccc(C)c1-n1nc2c(c1-c1ccc3[nH]ncc3c1)CN(C(=O)OC(C)(C)C)C2 [Compound 1.058]	≤ 6.30
CCc1cccc(CC)c1-n1nc2c(c1-c1ccc(F)c3[nH]ccc13)CN(Cc1ccccc1C(F)(F)F)C2(C)C [Compound 1.029]	7.30 to 8.30
Cc1cccc(C)c1-n1nc2c(c1-c1ccc3[nH]ccc3c1)CN(CC(C)(C)C)C2 [Compound 1.053]	6.30 to 7.30
CCc1cccc(CC)c1-n1nc2c(c1-c1cccc3[nH]cc(F)c13)CN(Cc1ccc(C(F)(F)F)cc1C(F)(F)F)C2(C)C [Compound 1.010]	7.30 to 8.30
